{"source": "ChEMBL document CHEMBL5247647", "about": "“Phenothiazine-Based LSD1 Inhibitor Promotes T-Cell Killing Response of Gastric Cancer Cells” (J Med Chem, 2023)", "key": {"MFC [1]": {"tested_on": "MFC", "assay": "Downregulation of PD-L1 expression in mouse MFC cells at 5 to 20 uM incubated for 5 days by Western blot anlaysis", "type": "functional, cell-based", "details": "dose 5-20 µM, time 5.0 day"}, "BGC-823 [2]": {"tested_on": "BGC-823", "assay": "Anticancer activity against human BGC-823 cells assessed as increase in CD3/CD28 activated T-cell killing response at 5 to 20 uM incubated for 5 days by DAPI staining based assay", "type": "functional", "details": "dose 5-20 µM, time 5.0 day"}, "[3]": {"assay": "Toxicity against 615 mouse xenografted with mouse MFC cells in assessed as body weight change in tumor at 10 to 50 mg/kg, po for 14 days", "type": "organism-based", "details": "in vivo, 336 h, dose 10-50 mg/kg, time 14 day"}, "BGC-823 [4]": {"tested_on": "BGC-823", "assay": "Anticancer activity against human BGC-823 cells assessed as increase in CD3/CD28 activated T-cell killing response by measuring IFNgamma level at 5 to 20 uM incubated for 5 days by Sandwich ELISA", "type": "functional, cell-based", "details": "dose 5-20 µM, time 5.0 day"}, "BGC-823 [5]": {"tested_on": "BGC-823", "assay": "Downregulation of PD-L1 mRNA expression in human BGC-823 cells at 5 to 5 to 20 uM incubated for 5 days", "type": "functional, cell-based", "details": "dose 5-20 µM, time 5.0 day"}, "MFC [6]": {"tested_on": "MFC", "assay": "Antitumor activity against mouse MFC cells xenografted in 615 mouse assessed as increase in IL-2 mRNA expression level in tumor at 10 to 50 mg/kg, po for 14 days", "type": "functional, organism-based", "details": "dose 10-50 mg/kg, time 14.0 day"}, "MFC [7]": {"tested_on": "MFC", "assay": "Antitumor activity against mouse MFC cells xenografted in 615 mouse assessed as increase in IFNgamma expression level in tumor at 10 to 50 mg/kg, po for 14 days by ELISA", "type": "functional, organism-based", "details": "dose 10-50 mg/kg, time 14.0 day"}, "MFC [8]": {"tested_on": "MFC", "assay": "Antitumor activity against mouse MFC cells xenografted in 615 mouse assessed as increase in infiltration of CD8+ T cells into tumor at 10 to 50 mg/kg, po for 14 days by immunohistochemistry", "type": "functional, organism-based", "details": "dose 10-50 mg/kg, time 14.0 day"}, "BGC-823 [9]": {"tested_on": "BGC-823", "assay": "Antiproliferative activity against human BGC-823 cells assessed as inhibition of cell proliferation incubated for 48 hrs by SRB assay", "type": "functional, cell-based"}, "[10]": {"molecular_target": "T1, Lysine-specific histone demethylase 1A (Homo sapiens, UniProt O60341)", "assay": "Inhibition of human LSD1 in human LSD1 knockout BGC-823 cells assessed as effect on H3K4me1 methylation at 5 to 20 uM incubated for 5 days by Western blot anlaysis", "type": "cell-based", "details": "dose 5-20 µM, time 5.0 day"}, "[11]": {"assay": "Toxicity against 615 mouse xenografted with mouse MFC cells in assessed as pathological changes in liver at 10 to 50 mg/kg, po for 14 days by Hematoxylin and Eosin staining based microscopic analysis", "type": "organism-based", "details": "in vivo, 336 h, dose 10-50 mg/kg, time 14 day"}, "MFC [12]": {"tested_on": "MFC", "assay": "Antitumor activity against mouse MFC cells xenografted in 615 mouse assessed as tumor growth suppression at 10 to 50 mg/kg, po for 14 days", "type": "functional, organism-based", "details": "dose 10-50 mg/kg, time 14.0 day"}, "[13]": {"assay": "Toxicity against 615 mouse xenografted with mouse MFC cells in assessed as pathological changes in kidney at 10 to 50 mg/kg, po for 14 days by Hematoxylin and Eosin staining based microscopic analysis", "type": "organism-based", "details": "in vivo, 336 h, dose 10-50 mg/kg, time 14 day"}, "MFC [14]": {"tested_on": "MFC", "assay": "Antitumor activity against mouse MFC cells xenografted in 615 mouse assessed as increase in IL-2 expression level in tumor at 10 to 50 mg/kg, po for 14 days by ELISA", "type": "functional, organism-based", "details": "dose 10-50 mg/kg, time 14.0 day"}, "MFC [15]": {"tested_on": "MFC", "assay": "Antitumor activity against mouse MFC cells xenografted in 615 mouse assessed as increase in IFNgamma mRNA expression level in tumor at 10 to 50 mg/kg, po for 14 days", "type": "functional, organism-based", "details": "dose 10-50 mg/kg, time 14.0 day"}, "MFC [16]": {"tested_on": "MFC", "assay": "Antitumor activity against mouse MFC cells xenografted in 615 mouse assessed as increase in infiltration of CD3+ T cells into tumor at 10 to 50 mg/kg, po for 14 days by immunohistochemistry", "type": "functional, organism-based", "details": "dose 10-50 mg/kg, time 14.0 day"}, "[17]": {"molecular_target": "T1, Lysine-specific histone demethylase 1A", "assay": "Inhibition of human LSD1 in human LSD1 knockout BGC-823 cells assessed as effect on H3K4me3 methylation at 5 to 20 uM incubated for 5 days by Western blot anlaysis", "type": "cell-based", "details": "dose 5-20 µM, time 5.0 day"}, "MFC [18]": {"tested_on": "MFC", "assay": "Antitumor activity against mouse MFC cells xenografted in 615 mouse assessed as increase in infiltration of CD4+ T cells into tumor at 10 to 50 mg/kg, po for 14 days by immunohistochemistry", "type": "functional, organism-based", "details": "dose 10-50 mg/kg, time 14.0 day"}, "MFC [19]": {"tested_on": "MFC", "assay": "Antitumor activity against mouse MFC cells xenografted in 615 mouse assessed as decrease in Ki67 expression in tumor at 10 to 50 mg/kg, po for 14 days by immunohistochemistry", "type": "functional, organism-based", "details": "dose 10-50 mg/kg, time 14.0 day"}, "BGC-823 [20]": {"tested_on": "BGC-823", "assay": "Anticancer activity against human LSD1 knockout BGC-823 cells assessed as increase in CD3/CD28 activated T-cell killing response at 5 to 20 uM incubated for 5 days by DAPI staining based assay", "type": "functional", "details": "dose 5-20 µM, time 5.0 day"}, "[21]": {"assay": "Toxicity against 615 mouse xenografted with mouse MFC cells in assessed as pathological changes in spleen at 10 to 50 mg/kg, po for 14 days by Hematoxylin and Eosin staining based microscopic analysis", "type": "organism-based", "details": "in vivo, 336 h, dose 10-50 mg/kg, time 14 day"}, "[22]": {"molecular_target": "T1, Lysine-specific histone demethylase 1A", "assay": "Inhibition of human LSD1 in human LSD1 knockout BGC-823 cells assessed as effect on H3K4me2 methylation at 5 to 20 uM incubated for 5 days by Western blot anlaysis", "type": "cell-based", "details": "dose 5-20 µM, time 5.0 day"}}, "note": "The source made the active and inactive calls. No cut-off for these calls is given here."}
{"smiles": "c1ccc2c(c1)Sc1ccccc1N2CCN1CCOCC1", "values": [{"measurement": "Activity", "setting": "MFC [1]", "result": "Dose-Dependent Effect"}, {"measurement": "Activity", "setting": "BGC-823 [2]", "result": "Dose-Dependent Effect"}, {"measurement": "Activity", "setting": "[3]", "result": "Non-Toxic"}, {"measurement": "Activity", "setting": "BGC-823 [4]", "result": "Active"}, {"measurement": "Activity", "setting": "BGC-823 [5]", "result": "Dose-Dependent Effect"}, {"measurement": "Activity", "setting": "MFC [6]", "result": "Active"}, {"measurement": "Activity", "setting": "MFC [7]", "result": "Active"}, {"measurement": "Activity", "setting": "MFC [8]", "result": "Active"}, {"measurement": "Activity", "setting": "BGC-823 [9]", "result": "inactive"}, {"measurement": "inhibition", "setting": "[10]", "result": "inactive"}, {"measurement": "Activity", "setting": "[11]", "result": "Non-Toxic"}, {"measurement": "Activity", "setting": "MFC [12]", "result": "Dose-Dependent Effect"}, {"measurement": "Activity", "setting": "[13]", "result": "Non-Toxic"}, {"measurement": "Activity", "setting": "MFC [14]", "result": "Active"}, {"measurement": "Activity", "setting": "MFC [15]", "result": "Active"}, {"measurement": "Activity", "setting": "MFC [16]", "result": "Active"}, {"measurement": "inhibition", "setting": "[17]", "result": "inactive"}, {"measurement": "Activity", "setting": "MFC [18]", "result": "Active"}, {"measurement": "Activity", "setting": "MFC [19]", "result": "Active"}, {"measurement": "Activity", "setting": "BGC-823 [20]", "result": "inactive"}, {"measurement": "Activity", "setting": "[21]", "result": "Non-Toxic"}, {"measurement": "inhibition", "setting": "[22]", "result": "inactive"}]}
